Where two headings read alike, the source gives them in different places.
Assays:
BC-3 PEL cell line [1] = experiment: CellTiter-Glo cell viability assay, BC-3; settings: read-out: BC-3 LC50 (μM)
Description: Media was supplemented with 20% FBS 3 hours post-peptide treatment.
(§1) Cytotoxicity of these hits was assayed using CellTiter Glo viability assay.

in vitro = settings: human
Description: as §1

full length NEMO = experiment: Fluorescence polarization direct binding assay, specificity over NEMO; settings: FITC-labeled peptide
From the text: (§2) Data plotted represent mean±s.e.m of three replicate experiments. TR-FRET signal was normalized to DMSO control and expressed as percent inhibition. […] Data shown represent mean±s.d. of two independent experiments performed in triplicate. Data was normalized to c. (FIG. 3C) The conformation of the coiled coil mimics was investigated by circular dichroism spectroscopy in aqueous buffer. The reported values represent mean±s.e.m of two independent experiments. […] The circular dichroism spectra were collected at regular intervals between 5-95° C. Data shown represent one experiment where scans were recorded five times over the temperature range. […] Peptide degradation was probed over 24 h by HPLC. […] Cells were visualized by fluorescence microscopy after 1 hour incubation. […] Hoechst stain was used to detect the nuclei. Representative live confocal images from at least three replicate experiments are shown.
The polarization experiments were performed using a DTX 880 Multimode Detector (Beckman) at 25° C. with excitation and emission wavelengths of 485 and 525 nm, respectively. Each polarization experiment was performed in a 96-well round bottom plate (Greiner) in assay buffer: Tris glycerol pluronic acid. The binding affinity (KD) values reported for each peptide are from experiments performed in triplicate. […]

BC-1 cells = experiment: Live cell confocal microscopy cellular uptake; format: in vitro ADME
Description: Live Cell Confocal Microscopy and Analysis: BC1 PEL cells in the exponential phase were resuspended in RPMI 1640 media supplemented with 50 μg/ml gentamicin in the absence of serum and treated with a final concentration of 0.125% DMSO or 500 nM FITC-labeled peptide at 37° C., cold or in the presence of 10 mM sodium azide. Cells were then added to 35 mm glass bottom MatTek poly-lysine coated plates (p356c-0-10C) and immunofluorescence images were captured using LSM880 confocal miscroscope with Airyscan resolution detector, spectral detector and incubation. Images were processed using Fiji software (FIG. 14).
Inhibition of the vFLIP-NEMO complex formation in KSHV-infected PEL cells requires the inhibitor to be cell permeable. […] In order to probe cellular entry mechanism, we performed cellular uptake experiments at 4° C. as well as with sodium azide poisoning to reduce ATP-mediated active transport mechanisms without affecting overall cellular viablity (Patgiri et al., Nat. Chem. Biol. 7:585-7 (2011); which is hereby incorporated by reference in its entirety).

[2] = system: BC-3-luc PEL cells xenograft; experiment: PEL in vivo xenograft mouse model; design: species or system NOD/SCID mice; settings: 20 mg/kg intraperitoneally, 9 consecutive days
Description: PEL in Vivo Xenograft Mouse Model Study: […] BC3NFRen-luc #3 were injected intraperitoneally into 4-6 week-old male NOD/SCID mice. […] The tumor burden or bioluminescence (photons/s/cm^2/steradian) was monitored by live imaging and weighing, with the sacrificial endpoint determined to be a net gain or loss of 10% body weight over a week.
We next tested its antitumor activity in vivo. We injected 10×10^6 BC-3-luc PEL cells into the peritoneal cavity of NOD-SCID mice and monitored tumor burden by bioluminescence imaging.

[3] = Circular dichroism thermal denaturation; format: physicochemical; settings: CD spectra between 5-95° C.
From the text: as §2
Circular Dichroism Spectroscopy: CD spectra were recorded on a Jasco J-1500 Circular Dichroism Spectrophotometer equipped with a temperature controller using 1 mm length cells and a scan speed of 4 nm/min at 298K. The spectra were averaged over 4 scans with the background subtracted to the analogous experimental conditions. […] The concentrations of each peptide were determined by the UV absorption at 280 nm.

Serum stability assay = format: in vitro ADME; settings: 25% fetal bovine serum in RPMI, 60 μM peptide, read-out: initial peptide remaining intact
Description: Time points of 30 minutes, 1 hr, 2 hr, 8 hr, and 24 hrs were analyzed in triplicate. Each reaction was started upon addition of FBS to 60 μM peptide. Reactions were quenched at time points with addition of 100% EtOH, chilled on ice for 10 minutes, and pelleted at 12,000 RPM. Supernatant was injected onto an Agilent analytical HPLC equipped with an XTerra RP18 3.5 μm 2.1×150 mm column (Part No. 186000410) and visualized at 220 nm. Integration of peak areas was used to determine percent degradation of peptides. Mass of cleaved products were determined using Matrix assisted laser desorption ion time of flight (MALDI-TOF) spectroscopy.

[4] = system: PEL cell lines (BC-1, BC-3, BCBL-1); experiment: CellTiter-Glo cytotoxicity in panel of PEL cell lines; format: cell-based; settings: FIG. 5A
BC-3 PEL cell line [5] = settings: BC-3, KSHV+; read-out: PU-H71 LC50; cited from earlier work
BC-1 PEL cell line = settings: BC-1, KSHV+/EBV+; read-out: PU-H71 LC50; cited from earlier work
[6] = system: Namalwa Burkitt lymphoma cell line; settings: EBV+, read-out: PU-H71 LC50; cited from earlier work
BC-2 PEL cell line = settings: BC-2, KSHV+/EBV+; read-out: PU-H71 LC50; cited from earlier work
[7] = system: Namalwa Burkitt lymphoma cell line; experiment: CellTiter-Glo cell viability assay, Namalwa; format: cell-based
BCBL-1 PEL cell line = settings: BCBL-1, KSHV+; read-out: PU-H71 LC50; cited from earlier work
[8] = target: T1, vFLIP/NEMO complex in vFLIP-FLAG doxycycline-inducible Namalwa cell line (Human herpesvirus 8 type P, UniProt F5HEZ4); experiment: Co-immunoprecipitation of vFLIP-FLAG and NEMO; format: cell-based; settings: 24 hrs treatment, increasing concentrations
T1 construct: expressed in transfected cells; host or cells: Namalwa Burkitt lymphoma cells, lentivirally transduced (pLVX-TetOne-puro), doxycycline-induced
Description: Co-Immunoprecipiation: FLAG-tagged WT vFLIP or a vFLIP NF-κB dead mutant (vFLIP^AAA(58-60)) inducible Namalwa Burkitt lymphoma cell lines were used. Expression of WT vFLIP or mutant vFLIP was attained by treating cells with 1 μg/mL doxcycline for 24 hrs. […] 4 hours post-treatment, media was supplemented with 20% FBS and treatment continued for another 24 hrs. Next day, uninduced Namalwa WT vFLIP cell line, treated Namalwa WT vFLIP expressing cell lines as well as Namalwa expressing mutant vFLIP and parental Namalwa cell lines were harvested, washed in PBS and lysed on ice for 30 minutes using CelLytic M lysis reagent (Sigma, cat. C2978) supplemented with protease inhibitor cocktail (calbiochem, cat 539134). Cells were spun down and some of supernatants was saved for input and the rest was immunoprecipitated overnight using anti-FLAG M2beads (Sigma, cat. A2220) that were pre-equilibrated with the same buffer. […]
Immunoblotting: For co-immunoprecipitation study, eluted protein lysates were separated using pre-casted 10% sodium dodecyl sulfate-polyacrylamide gel electrophoresis SDS-PAGE gel (Bio-rad). […] Secondary anti-HRP rabbit antibody was used at 1:5000 dilution (GE healthcare) and chemiluminescent signal was detected using enhanced chemiluminescence (ECL) substrate (thermo Fisher Scientific) and autoradiography. […]

T1 sequence (F5HEZ4 whole entry, one chain of several): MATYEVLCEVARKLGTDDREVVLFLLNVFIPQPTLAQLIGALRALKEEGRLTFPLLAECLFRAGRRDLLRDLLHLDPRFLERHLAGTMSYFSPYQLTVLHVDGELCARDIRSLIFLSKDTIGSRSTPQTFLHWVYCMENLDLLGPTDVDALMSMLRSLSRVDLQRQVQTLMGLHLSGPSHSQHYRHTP

Compound	CC50 (BC-3 PEL cell line [1])	CC50 (in vitro)	also measured
O=C(C1CCCN1c1ncccn1)N1CCc2c(Cl)cccc2C1 (stereo not drawn) [Compound 7]	39.9 µM	31.6 µM	
CC[C@H](C)[C@H](NC(=O)[C@H](CC(C)C)NC(=O)[C@H](CCC(=O)O)NC(=O)[C@H](CC(=O)O)NC(=O)[C@@H](NC(=O)[C@H](CCCCn1cc(COCc2cn(CCCC[C@H](NC(=O)[C@H](CC(C)C)NC(=O)[C@H](CCCNC(=N)N)NC(=O)[C@H](CCCNC(=N)N)NC(=O)[C@@H](NC(=O)[C@H](CCC(=O)NC3CCCCC3)NC(=O)[C@H](CCC(=O)O)NC(=O)[C@H](Cc3c[nH]c4ccccc34)NC(=O)[C@H](CC(C)C)NC(=O)[C@H](CCC(N)=O)NC(=O)[C@H](CCCNC(=N)N)NC(=O)[C@@H](NC(=O)[C@H](Cc3c[nH]c4ccccc34)NC(=O)[C@H](CCC(=O)O)NC(=O)CCNC(=S)Nc3ccc4c(c3)C(=O)OC43c4ccc(O)cc4Oc4cc(O)ccc43)[C@@H](C)CC)[C@@H](C)CC)C(N)=O)nn2)nn1)NC(=O)[C@H](CCCNC(=N)N)NC(=O)[C@H](Cc1ccccc1)NC(=O)[C@H](CC(C)C)NC(=O)[C@H](CCCNC(=N)N)NC(=O)[C@H](Cc1c[nH]cn1)NC(=O)[C@@H](NC(=O)[C@H](CCC(=O)O)NC(C)=O)[C@@H](C)CC)[C@@H](C)CC)C(=O)N[C@@H](CCCNC(=N)N)C(N)=O [FITC-CHD3^NEMO]			binding to wild-type NEMO coiled coil (full length NEMO): failed to bind wild-type NEMO coiled coil; time to enter BC-1 cells (BC-1 cells; 500 nM FITC-labeled peptide, 37° C.): ≤ 30 min
Cc1cc(CNC(=O)NC2CCCC2)cc(C)c1O [Compound 5]	> 100 µM	> 100 µM	
CC[C@H](C)[C@H](NC(=O)[C@H](CC(C)C)NC(=O)[C@H](CCC(=O)O)NC(=O)[C@H](CC(=O)O)NC(=O)[C@@H](NC(=O)[C@H](CCCCn1cc(COCc2cn(CCCC[C@H](NC(=O)[C@H](CC(C)C)NC(=O)[C@H](CCCNC(=N)N)NC(=O)[C@H](CCCNC(=N)N)NC(=O)[C@@H](NC(=O)[C@H](CCC(=O)NC3CCCCC3)NC(=O)[C@H](CCC(=O)O)NC(=O)[C@H](Cc3c[nH]c4ccccc34)NC(=O)[C@H](CC(C)C)NC(=O)[C@H](CCC(N)=O)NC(=O)[C@H](CCCNC(=N)N)NC(=O)[C@@H](NC(=O)[C@H](Cc3c[nH]c4ccccc34)NC(=O)[C@H](CCC(=O)O)NC(C)=O)[C@@H](C)CC)[C@@H](C)CC)C(N)=O)nn2)nn1)NC(=O)[C@H](CCCNC(=N)N)NC(=O)[C@H](Cc1ccccc1)NC(=O)[C@H](CC(C)C)NC(=O)[C@H](CCCNC(=N)N)NC(=O)[C@H](Cc1c[nH]cn1)NC(=O)[C@@H](NC(=O)[C@H](CCC(=O)O)NC(C)=O)[C@@H](C)CC)[C@@H](C)CC)C(=O)N[C@@H](CCCNC(=N)N)C(N)=O [CHD3^NEMO]			observed toxicity [2]: without any observed toxicity; conformational stability (helix percentage vs temperature) [3]: retain a significant proportion of helix percentage at high temperatures; cellular uptake at cold temperatures and with sodium azide (BC-1 cells; 4° C., 10 mM sodium azide): reduction in cellular uptake; remaining at 24 h, 60 μM (Serum stability assay): ~80%
Cc1cccc(-c2cccc(CNC(=O)NCCS(C)(=O)=O)c2)c1 [Compound 8]	> 100 µM	> 100 µM	
CC(C)NCCCn1c(Sc2cc3c(cc2I)OCO3)nc2c(N)ncnc21 [PU-H71]			sensitivity of PEL cell lines [4]: showed sensitivity; CC50 (BC-3 PEL cell line [5]): 0.0634 µM; CC50 (BC-1 PEL cell line): 0.0369 µM; CC50 [6]: 0.337 µM; CC50 (BC-2 PEL cell line): 0.0271 µM; sensitivity of vFLIP-negative Namalwa cells [7]: showed sensitivity; CC50 (BCBL-1 PEL cell line): 0.217 µM; disruption of vFLIP/NEMO complex (NEMO pulled down by FLAG beads) [8]: disrupted the complex and destabilized both vFLIP and NEMO
CC(=O)N1CCc2cc(C(=O)C(C)Oc3ccc(C#N)cc3Cl)ccc21 (stereo not drawn) [Compound 6]	35.9 µM	69.7 µM	
CN(Cc1ccc2cccnc2c1)S(=O)(=O)c1cccs1 [Compound 4]	> 100 µM	> 100 µM	
CCCCC(CC)CNC(=N)NC(=N)NCCCCCCNC(=N)NC(=N)NCC(CC)CCCC (stereo not drawn) [Compound 9]	3.9 µM	3.8 µM	
CCOc1ccc2nc3cc(N)ccc3c(N)c2c1 [Compound 2]	12.2 µM	7.7 µM	
c1ccc2c(c1)Nc1ccccc1S2 [Compound 3]	62.7 µM	63 µM	
